Measurements: US20040067955A1, “Pyridazinone compound and pharmaceutical use thereof” (Fujisawa Pharmaceutical Co. Ltd., priority 2002, published 2004)

Key:
[1] = test system: ddY mice; assay: Anticatalepsy activity in mouse (haloperidol-induced catalepsy, bar test); assay type: in vivo; settings: test compound 3.2 mg/kg orally, ddY mice (n=7); haloperidol 0.32 mg/kg i.p. 30 min later; measured 30 min after injection
Procedure: The test compound (3.2 mg/kg) was administered orally with ddY mice (n=7). Then, haloperidol (0.32 mg/kg) was injected intraperitoneally 30 min. after the administration of the compound. Thirty min. After the injection, the cataleptic responses of mice were measured. The forelimbs of each mouse were placed on a 3 cm high, 3 mm wide horizontal bar, and the duration of cataleptic posture was measured for up to 30 sec.

[2] = molecular target: human A2a receptor (Homo sapiens, UniProt P29274); assay: Adenosine antagonistic activity: radioligand binding with [3H]CGS 21680 (20 nM)
Procedure: (§1) The adenosine antagonistic activity [Ki(nM)] of the test compound was examined by radioligand binding techniques using 8-cyclopentyl-1,3-dipropylxanthine, [dipropyl-2,3-^3H (N)] ([^3H]DPCPX, 4.5 nM) for human A1 receptor and [^3H]CGS 21680 (20 nM) for human A2a receptor.

[3] = molecular target: T1, human A1 receptor (Homo sapiens, UniProt P30542); assay: Adenosine antagonistic activity: radioligand binding with [3H]DPCPX (4.5 nM)
T1 sequence (P30542 1-326): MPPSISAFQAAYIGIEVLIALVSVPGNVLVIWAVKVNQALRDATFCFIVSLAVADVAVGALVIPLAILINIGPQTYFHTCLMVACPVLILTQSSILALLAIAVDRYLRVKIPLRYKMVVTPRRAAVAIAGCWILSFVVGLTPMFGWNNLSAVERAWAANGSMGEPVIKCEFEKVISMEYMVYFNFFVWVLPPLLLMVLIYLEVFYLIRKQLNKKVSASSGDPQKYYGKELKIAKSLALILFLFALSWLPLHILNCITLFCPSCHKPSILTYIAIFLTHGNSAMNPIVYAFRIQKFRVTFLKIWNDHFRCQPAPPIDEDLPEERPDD
Procedure: as §1

Chain of human A2a receptor (P29274 whole entry): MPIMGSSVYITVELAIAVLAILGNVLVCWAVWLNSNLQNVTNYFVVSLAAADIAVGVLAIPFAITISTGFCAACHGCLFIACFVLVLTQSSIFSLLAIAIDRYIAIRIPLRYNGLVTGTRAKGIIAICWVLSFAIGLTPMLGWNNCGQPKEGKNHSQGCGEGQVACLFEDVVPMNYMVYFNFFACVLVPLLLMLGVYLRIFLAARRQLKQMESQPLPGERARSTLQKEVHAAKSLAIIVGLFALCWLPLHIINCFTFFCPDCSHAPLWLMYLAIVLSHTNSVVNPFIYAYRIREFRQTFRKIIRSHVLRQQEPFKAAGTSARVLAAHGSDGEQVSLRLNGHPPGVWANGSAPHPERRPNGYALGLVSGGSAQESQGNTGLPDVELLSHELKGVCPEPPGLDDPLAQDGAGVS

Row | SMILES | melting point [°C] | other results
1 | CC(C)n1nc(-c2cc(C(=O)N3CCN(C)CC3)cnc2-c2ccccc2)ccc1=O [Example 19, 2-Isopropyl-6-{5-[(4-methyl-1-piperazinyl)carbonyl]-2-phenyl-3-pyridyl}-3(2H)-pyridazinone] | 165 to 166 | 
2 | CNC(=O)c1cnc(-c2ccccc2)c(-c2ccc(=O)n(C(C)C)n2)c1 [Example 15, 5-(1-isopropyl-6-oxo-1,6-dihydro-3-pyridazinyl)-N-methyl-6-phenyl-nicotinamide] | 212 to 213 | 
3 | CC(C)n1nc(-c2cc(Cl)c(N)nc2-c2ccc(F)cc2)ccc1=O [Example 74, 6-[6-Amino-5-chloro-2-(4-fluorophenyl)-3-pyridyl]-2-isopropyl-3(2H)-pyridazinone] |  | Manifestation rate of catalepsy (number of mouse) [1]: 0/7; Ki [2]: 1.28 nM; Ki [3]: 6.42 nM
4 | CC(C)n1nc(-c2cc(C(=O)NCCO)cnc2-c2ccccc2)ccc1=O [Example 20, N-(2-Hydroxyethyl)-5-(1-isopropyl-6-oxo-1,6-dihydro-3-pyridazinyl)-6-phenylnicotinamide] | 165 to 167 | 
5 | CC(C)n1nc(-c2cc(C(=O)NCc3ccccn3)cnc2-c2ccccc2)ccc1=O [Example 17, 5-(1-Isopropyl-6-oxo-1,6-dihydro-3-pyridazinyl)-6-phenyl-N-(2-pyridylmethyl)nicotinamide] | 193 to 194 | 
6 | CC(C)n1nc(-c2cc(C(N)=O)c(Cl)nc2-c2ccccc2)ccc1=O [Example 5, 2-chloro-5-(1-isopropyl-6-oxo-1,6-dihydro-3-pyridazinyl)-6-phenylnicotinamide] | 199 to 200 | 
7 | CC(C)n1nc(-c2cc(C(N)=O)c(N)nc2-c2ccccc2)ccc1=O [Example 7, 2-Amino-5-(1-isopropyl-6-oxo-1,6-dihydro-3-pyridazinyl)-6-phenylnicotinamide] | > 250 | 
8 | CC(C)n1nc(-c2cc(C(N)=O)cnc2-c2ccccc2)ccc1=O [Example 6, 5-(1-isopropyl-6-oxo-1,6-dihydro-3-pyridazinyl)-6-phenylnicotinamide] | 229 to 230 | 
9 | CC(C)n1nc(-c2cc(C#N)c(C(=O)O)nc2-c2ccccc2)ccc1=O [Example 11, 3-cyano-5-(1-isopropyl-6-oxo-1,6-dihydro-3-pyridazinyl)-6-phenyl-2-pyridinecarboxylic acid] | 196 to 198 | 
10 | CC(C)n1nc(-c2cc(C#N)c(=O)[nH]c2-c2ccccc2)ccc1=O [Example 1, 5-(1-isopropyl-6-oxo-1,6-dihydro-3-pyridazinyl)-2-oxo-6-phenyl-1,2-dihydro-3-pyridine-carbonitrile] | > 250 | 
11 | COC(=O)c1nc(-c2ccccc2)c(-c2ccc(=O)n(C(C)C)n2)cc1C#N [Example 9, methyl 3-cyano-5-(1-isopropyl-6-oxo-1,6-dihydro-3-pyridazinyl)-6-phenyl-2-pyridinecarboxylate] | 136 to 138 | 
12 | CC(C)n1nc(-c2cc(C#N)cnc2-c2ccccc2)ccc1=O [Example 8, 5-(1-isopropyl-6-oxo-1,6-dihydro-3-pyridazinyl)-6-phenylnicotinonitrile] | 133 to 135 | 
13 | CC(C)n1nc(-c2cc(-c3nc(-c4ccccc4)cs3)c(N)nc2-c2ccccc2)ccc1=O [Example 40, 6-[6-Amino-5-(4-phenyl-1,3-thiazol-2-yl)-2-phenyl-3-pyridyl]-2-isopropyl-3(2H)-pyridazinone] |  | Ki [2]: 6.58 nM; Ki [3]: 4.44 nM
14 | CC(C)n1nc(-c2cc(C(=O)N3CCOCC3)cnc2-c2ccccc2)ccc1=O [Example 18, 2-Isopropyl-6-[5-(4-morpholinylcarbonyl)-2-phenyl-3-pyridyl]-3 (2H)-pyridazinone] | 132 to 133 | 
15 | CC(C)n1nc(-c2cc(C#N)c(Cl)nc2-c2ccccc2)ccc1=O [Example 2, 2-chloro-5-(1-isopropyl-6-oxo-1,6-dihydro-3-pyridazinyl)-6-phenylnicotinonitrile] | 191 to 192 | 
16 | COc1nc(-c2ccccc2)c(-c2ccc(=O)n(C(C)C)n2)cc1C#N [Example 10, 5-(1-isopropyl-6-oxo-1,6-dihydro-3-pyridazinyl)-2-methoxy-6-phenylnicotinonitrile] | 187 to 189 | 
17 | CC(C)n1nc(-c2cc(C(=O)NCCN3CCOCC3)cnc2-c2ccccc2)ccc1=O [Example 22, 5-(1-Isopropyl-6-oxo-1,6-dihydro-3-pyridazinyl)-N-[2-(4-morpholinyl)ethyl]-6-phenylnicotinamide] | 162 to 163 | 
18 | CC(C)n1nc(-c2cc(C(=O)O)c(=O)[nH]c2-c2ccccc2)ccc1=O [Example 13, 5-(1-isopropyl-6-oxo-1,6-dihydro-3-pyridazinyl)-2-oxo-6-phenyl-1,2-dihydro-3-pyridinecarboxylic acid] | 212 to 215 | 
19 | CC(C)n1nc(-c2cc(O)cnc2-c2ccccc2)ccc1=O [Example 53, 6-(5-hydroxy-2-phenyl-3-pyridyl)-2-isopropyl-3(2H)-pyridazinone] |  | Ki [2]: 3.87 nM; Ki [3]: 0.43 nM
20 | CC(C)n1nc(-c2cc(C(=O)NCc3ccccc3)cnc2-c2ccccc2)ccc1=O [Example 16, N-Benzyl-5-(1-isopropyl-6-oxo-1,6-dihydro-3-pyridazinyl)-6-phenylnicotinamide] | 205 to 206 | 
21 | CC(C)n1nc(-c2cc(C#N)c(C(N)=O)nc2-c2ccccc2)ccc1=O [Example 12, 3-cyano-5-(1-isopropyl-6-oxo-1,6-dihydro-3-pyridazinyl)-6-phenyl-2-pyridinecarboxamide] | 221 to 223 | 

Second part, led by results:

Row | melting point [°C] | SMILES | other results
22 | 196 to 197 | CC(C)n1nc(-c2cc(I)c(N)nc2-c2ccccc2)ccc1=O [Example 35, 6-(6-amino-5-iodo-2-phenyl-3-pyridyl)-2-isopropyl-3 (2H)-pyridazinone] | 
23 | 137 to 138 | CC(C)n1nc(-c2ccc(OCC(N)=O)nc2-c2ccccc2)ccc1=O [Example 31, 2-{[5-(1-isopropyl-6-oxo-1,6-dihydro-3-pyridazinyl)-6-phenyl-2-pyridyl]oxy}acetamide] | 
24 | 186 to 188 | CC(C)n1nc(-c2c(-c3ccccc3)nc(Cl)c(N)c2Cl)ccc1=O [Example 77, 6-(5-amino-4,6-dichloro-2-phenyl-3-pyridyl)-2-isopropyl-3(2H)-pyridazinone] | 
25 | 208 to 209 | CC(C)n1nc(-c2cc(-c3ccccc3)c(N)nc2-c2ccccc2)ccc1=O [Example 36, 6-(6-amino-2,5-diphenyl-3-pyridyl)-2-isopropyl-3 (2H)-pyridazinone] | 
26 | 253 to 254 | CC(C)n1nc(-c2cc(-c3ncnn3C)c(N)nc2-c2ccccc2)ccc1=O [Example 122, 6-[6-amino-5-(1-methyl-1H-1,2,4-triazol-5-yl)-2-phenyl-3-pyridyl]-2-isopropyl-3 (2H)-pyridazinone] | 
27 | 147 to 148 | CC(C)n1nc(-c2cc(N)cnc2-c2ccccc2)ccc1=O [Example 26, 6-(5-amino-2-phenyl-3-pyridyl)-2-isopropyl-3 (2H)-pyridazinone] | 
28 | 174 to 176 | CC(C)n1nc(-c2cc(Br)c(N)nc2-c2ccccc2)ccc1=O [Example 33, 6-(6-amino-5-bromo-2-phenyl-3-pyridyl)-2-isopropyl-3(2H)-pyridazinone] | Ki [2]: 0.91 nM; Ki [3]: 0.41 nM
29 | 189 to 190 | CC(C)n1nc(-c2cc(-n3cccc3)cnc2-c2ccccc2)ccc1=O [Example 29, 2-isopropyl-6-[2-phenyl-5-(1H-pyrrol-1-yl)-3-pyridyl]-3(2H)-pyridazinone] | 
30 | 107 to 109 | CC(C)n1nc(-c2ccc(=O)[nH]c2-c2ccccc2)ccc1=O [Example 30, 2-isopropyl-6-(6-oxo-2-phenyl-1,6-dihydro-3-pyridyl)-3(2H)-pyridazinone] | 
31 | 167 to 171 | CC(C)n1nc(-c2ccc(N)nc2-c2ccccc2)ccc1=O [Example 32, 6-(6-amino-2-phenyl-3-pyridyl)-2-isopropyl-3(2H)-pyridazinone] | 
32 | 207 to 208 | CC(C)n1nc(-c2cc(Cl)c(N)nc2-c2ccccc2)ccc1=O [Example 34, 6-(6-amino-5-chloro-2-phenyl-3-pyridyl)-2-isopropyl-3 (2H)-pyridazinone] | 
33 | 207 to 208 | CC(=O)c1cnc(-c2ccccc2)c(-c2ccc(=O)n(C(C)C)n2)c1 [Example 23, 6-(5-acetyl-2-phenyl-3-pyridyl)-2-isopropyl-3(2H)-pyridazinone] | 
34 | 183 to 184 | COC(=O)c1cc(-c2ccc(=O)n(C(C)C)n2)c(-c2ccccc2)nc1OCC(N)=O [Example 50, Methyl 2-carbamoylmethoxy-5-(1-isopropyl-6-oxo-1,6-dihydro-3-pyridazinyl)-6-phenylnicotinate] | 
35 | 207 to 208 | CC(=O)Nc1cnc(-c2ccccc2)c(-c2ccc(=O)n(C(C)C)n2)c1 [Example 28, N-[5-(1-Isopropyl-6-oxo-1,6-dihydro-3-pyridazinyl)-6-phenyl-3-pyridyl]acetamide] | 
